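Exposure lasted 48 hours, with cells grown in 96-well plates and compounds tested at five concentrations. Here, GI50 denotes the concentration required for 50% inhibition of growth.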 Calls of active or inactive are those of the source. Rule as the data show it: active = GI50 up to about 1.1 µM and inactive = higher.
Tests used:
Assay in all cases: NCI anticancer screen, dose series, 48 h
786-0 = system: 786-0
UACC-257 = system: UACC-257
SNB-19 = system: SNB-19
A498 = system: A498
IGROV-1 = system: IGROV-1
SNB-75 = system: SNB-75
CCRF-CEM = system: CCRF-CEM
A549 = system: A549
MDA-N = system: MDA-N
T47D = system: T47D
HT-29 = system: HT-29
MDA-MB-435 = system: MDA-MB-435
UACC-62 = system: UACC-62
HOP-92 = system: HOP-92
K562 = system: K562
NCI-H522 = system: NCI-H522
M14 = system: M14
NCI-H23 = system: NCI-H23
SW-620 = system: SW-620
NCI-H226 = system: NCI-H226

Measured: GI50

COc1ccc(N2C(=O)C3ON(Cc4ccc(CC(N)=O)cc4)C(c4c5ccccc5c(C)c5ccccc45)C3C2=O)cc1 (centres undefined)
inactive: 786-0 30 µM | UACC-257 17.6 µM | SNB-19 27.9 µM | A498 46.1 µM | IGROV-1 27.3 µM | SNB-75 14.4 µM | CCRF-CEM 12.4 µM | A549 29.8 µM | MDA-N 22.3 µM | T47D 17.6 µM | HT-29 12.9 µM | MDA-MB-435 27.2 µM | UACC-62 30.7 µM | HOP-92 19 µM | K562 3.27 µM | NCI-H522 20 µM | M14 24.3 µM | NCI-H23 32.7 µM | SW-620 25.9 µM

COc1cc(S(=O)(=O)Nc2ccc(-c3csc(N4C(=O)C(Cl)C4c4ccccc4)n3)cc2)ccc1Cl (centres undefined)
inactive: 786-0 19.2 µM | UACC-257 8.45 µM | SNB-19 > 100 µM | A498 25.9 µM | IGROV-1 4.63 µM | SNB-75 22.8 µM | CCRF-CEM 3.37 µM | A549 > 100 µM | MDA-N 37.5 µM | T47D 28.4 µM | HT-29 > 100 µM | MDA-MB-435 38.5 µM | UACC-62 22.9 µM | HOP-92 18.2 µM | K562 32.2 µM | NCI-H522 3.14 µM | M14 24 µM | NCI-H23 25.6 µM | SW-620 50.4 µM

CCCNC1=C2C[C@@H](C)C[C@@H](OC)[C@@H](OC(=O)CCCN)[C@H](C)/C=C(\C)[C@@H](OC(N)=O)[C@H](OC)/C=C\C=C(/C)C(=O)NC(=CC1=O)C2=O
inactive: 786-0 20.8 µM | NCI-H226 18.5 µM | SNB-19 14.6 µM | A498 21.8 µM | IGROV-1 16.1 µM | CCRF-CEM 2.52 µM | A549 15.7 µM | MDA-N 10.3 µM | T47D 12.7 µM | HT-29 7.05 µM | MDA-MB-435 13 µM | UACC-62 13.9 µM | HOP-92 12.7 µM | K562 4.75 µM | NCI-H522 5.02 µM | M14 15.2 µM | NCI-H23 11.6 µM | SW-620 10.6 µM

COc1c2cc(C(C)(C)C)cc1Cc1cccc(c1O)Cc1cc(C(C)(C)C)cc(c1OC)Cc1cccc(c1O)Cc1cc(C(C)(C)C)cc(c1OC)Cc1cccc(c1O)C2
inactive: 786-0 > 100 µM | UACC-257 96.6 µM | SNB-19 > 100 µM | A498 > 100 µM | SNB-75 > 100 µM | CCRF-CEM > 10 µM | A549 > 100 µM | MDA-N > 100 µM | T47D > 100 µM | HT-29 > 100 µM | MDA-MB-435 > 100 µM | UACC-62 > 100 µM | HOP-92 > 100 µM | K562 > 100 µM | NCI-H522 > 100 µM | M14 55.6 µM | NCI-H23 > 10 µM | SW-620 > 100 µM

Cc1cn(CCCCCCOC(=O)NC(CCCNC(N)=O)C(=O)O)c(=O)[nH]c1=O (centres undefined)
inactive: 786-0 > 100 µM | UACC-257 > 100 µM | NCI-H226 > 100 µM | SNB-19 > 100 µM | A498 > 100 µM | IGROV-1 > 100 µM | SNB-75 > 100 µM | CCRF-CEM > 100 µM | A549 > 100 µM | MDA-N > 100 µM | T47D > 100 µM | HT-29 > 100 µM | MDA-MB-435 > 100 µM | UACC-62 > 100 µM | HOP-92 > 100 µM | K562 > 100 µM | M14 > 100 µM | NCI-H23 > 100 µM | SW-620 > 100 µM

COc1ccc2oc3c(ccc[n+]3C)c(=O)c2c1
inactive: NCI-H226 > 100 µM | SNB-19 > 100 µM | A498 > 100 µM | IGROV-1 > 100 µM | SNB-75 > 100 µM | CCRF-CEM > 100 µM | A549 > 100 µM | MDA-N > 100 µM | T47D > 100 µM | HT-29 > 100 µM | MDA-MB-435 > 100 µM | UACC-62 > 100 µM | HOP-92 > 100 µM | K562 > 100 µM | NCI-H522 > 100 µM | M14 > 100 µM | NCI-H23 > 100 µM | SW-620 > 100 µM

CCOC(=O)c1c2c(n3ccccc13)C(=O)c1ccccc1C2=O
inactive: 786-0 19.1 µM | UACC-257 > 100 µM | NCI-H226 > 100 µM | SNB-19 80 µM | A498 61.4 µM | IGROV-1 > 100 µM | SNB-75 19.5 µM | A549 3.82 µM | MDA-N > 100 µM | T47D > 100 µM | HT-29 > 100 µM | MDA-MB-435 > 100 µM | UACC-62 67.9 µM | HOP-92 44.8 µM | K562 > 100 µM | NCI-H522 > 100 µM | M14 > 100 µM | NCI-H23 42.2 µM | SW-620 > 100 µM

CCOC(=O)c1nc2ccc(C(F)(F)F)cc2nc1Oc1cc(OC)c(OC)c(OC)c1
inactive: 786-0 13.5 µM | UACC-257 40.4 µM | NCI-H226 27.2 µM | SNB-19 27.8 µM | A498 > 100 µM | IGROV-1 51.1 µM | SNB-75 19.5 µM | CCRF-CEM > 10 µM | A549 53.7 µM | MDA-N > 100 µM | T47D > 100 µM | HT-29 78.2 µM | MDA-MB-435 > 100 µM | UACC-62 94.8 µM | HOP-92 14.5 µM | K562 36.7 µM | M14 > 100 µM | SW-620 47.8 µM

COc1ccc2c(=O)c(O)c(-c3ccc(OC)c(OC)c3)oc2c1
inactive: UACC-257 6.76 µM | SNB-19 15.8 µM | A498 4.97 µM | IGROV-1 7.45 µM | CCRF-CEM 2.36 µM | A549 4.92 µM | MDA-N > 100 µM | T47D > 100 µM | HT-29 4.92 µM | MDA-MB-435 4.51 µM | UACC-62 3.23 µM | HOP-92 4.18 µM | K562 4.53 µM | NCI-H522 3.13 µM | M14 5.45 µM | SW-620 4.97 µM

COc1ccc(C(=C(I)c2ccccc2)c2ccc(OC)cc2)cc1
inactive: 786-0 > 100 µM | UACC-257 > 100 µM | NCI-H226 > 100 µM | SNB-19 > 100 µM | IGROV-1 > 100 µM | CCRF-CEM > 100 µM | A549 > 100 µM | MDA-N > 100 µM | T47D 19.1 µM | HT-29 7.23 µM | MDA-MB-435 > 100 µM | UACC-62 > 100 µM | HOP-92 > 100 µM | K562 > 100 µM | NCI-H522 > 100 µM | M14 > 100 µM | NCI-H23 > 100 µM | SW-620 > 100 µM

CC(O)C1CC1(CO)CNc1cc(Cl)nc(N)n1 (centres undefined)
inactive: 786-0 > 100 µM | UACC-257 > 100 µM | NCI-H226 > 100 µM | SNB-19 > 100 µM | IGROV-1 > 100 µM | SNB-75 > 100 µM | CCRF-CEM > 100 µM | A549 > 100 µM | MDA-N > 100 µM | T47D > 100 µM | HT-29 > 100 µM | MDA-MB-435 > 100 µM | UACC-62 > 10 µM | HOP-92 > 100 µM | K562 > 100 µM | NCI-H522 > 100 µM | NCI-H23 > 100 µM | SW-620 > 100 µM

Cc1nc2ccc(Cl)cc2c2c1CCN2c1ccc(F)cc1
active: A498 0.891 µM | SNB-75 0.0266 µM
inactive: 786-0 11.8 µM | UACC-257 14.3 µM | NCI-H226 16.2 µM | SNB-19 33.1 µM | IGROV-1 9.42 µM | CCRF-CEM 11.6 µM | A549 43.5 µM | MDA-N 7 µM | T47D 36.1 µM | HT-29 4.94 µM | MDA-MB-435 7.05 µM | UACC-62 15.2 µM | K562 5.35 µM | NCI-H522 44.2 µM | M14 16.5 µM | NCI-H23 20.2 µM | SW-620 27.1 µM

O=c1oc2c/c(=C\c3ccccc3)c(=O)c3cccc1c3-2
inactive: 786-0 22.8 µM | UACC-257 31.7 µM | NCI-H226 31.7 µM | SNB-19 31.8 µM | A498 > 100 µM | IGROV-1 23 µM | SNB-75 41.4 µM | A549 > 100 µM | MDA-N 20.8 µM | T47D 27.3 µM | HT-29 55.6 µM | MDA-MB-435 21.4 µM | UACC-62 24.5 µM | HOP-92 19.6 µM | NCI-H522 22.8 µM | M14 22.4 µM | NCI-H23 36.7 µM | SW-620 25.1 µM

O=C(NCCCN1CCN(CCCNC(=O)Nc2cccc3ccccc23)CC1)Nc1cccc2ccccc12
inactive: 786-0 18.9 µM | UACC-257 13.2 µM | SNB-19 18.6 µM | A498 15.3 µM | IGROV-1 17.3 µM | SNB-75 15.5 µM | CCRF-CEM 22.2 µM | A549 17.7 µM | MDA-N 15.6 µM | T47D 13.2 µM | HT-29 16.8 µM | MDA-MB-435 16.2 µM | UACC-62 3.33 µM | HOP-92 13.8 µM | K562 19.9 µM | NCI-H522 15.8 µM | M14 16.3 µM | NCI-H23 16.2 µM | SW-620 8.32 µM

COC(=O)C1CCN(C(=O)OC(C)(C)C)CC1
inactive: 786-0 > 100 µM | UACC-257 > 100 µM | SNB-19 > 100 µM | A498 > 100 µM | IGROV-1 > 100 µM | SNB-75 > 100 µM | CCRF-CEM > 100 µM | A549 > 100 µM | MDA-N > 100 µM | T47D > 100 µM | HT-29 > 100 µM | MDA-MB-435 > 100 µM | UACC-62 > 100 µM | HOP-92 > 100 µM | NCI-H522 > 100 µM | M14 > 100 µM | NCI-H23 > 100 µM | SW-620 > 100 µM

From ChEMBL document CHEMBL1201862, “PubChem BioAssay data set” (2004)
